US20130096163A1, “Injectable dosage form of flupirtine” (AWD.PHARMA GMBH & CO. KG, priority 2010, published 2013)
Where two headings read alike, the source gives them in different places.

Assay: Solubility of flupirtine salts in water (stirring a suspension, filtration, HPLC-UV)
Format: physicochemical
Procedure: The solubility of the salt used is determined by stirring a suspension of a defined quantity of the corresponding salt for 30 minutes in a closed container in fully desalinated water at 25° C. The undissolved portion of the salt is filtered off, the filtrate is diluted to a suitable concentration range, and the flupirtine concentration of the solution determined using HPLC-UV (high performance liquid chromatography with UV-detection).
In a preferred embodiment of the invention, the flupirtine salt contained in the lyophilisate is selected from flupirtine mesilate, flupirtine besilate and/or flupirtine phosphate. Table 1shows the respective solubility of each of these flupirtine salts in water at 25° C. The solubility has been determined as described above.

Solubility | Compound | Solubility (in fully desalinated water at 25° C., suspension stirred 30 minutes, filtrate by HPLC-UV)
– | CCOC(=O)Nc1ccc(NCc2ccc(F)cc2)nc1N.O=S(=O)(O)c1ccccc1 [Flupirtine besilate] | 2.8 mg/mL
16.8 mg/mL | Flupirtine mesilate | –
13.6 mg/mL | Flupirtine phosphate | –
